What is called inhibition in vivo is the drop in the measured response relative to a control, in per cent. By inhibition is commonly meant the percentage by which the read-out fell short of the control.

The structures appear in SMILES notation. Active and inactive are the calls of the source. No cut-off for these calls is given here.

Data set [1] relates to Rattus norvegicus. Description: Antiinflammatory activity in rat assessed as inhibition of carrageenan-induced paw edema at 50 mg/kg, ip administered 1 hr before carrageenan challenge measured at 1 hr relative to control. The following applies: route intraperitoneal. The data set is classed as functional. On the technique in general: The carrageenan paw model is a standard test of acute inflammation.

For data set [2], the system named is Rattus norvegicus. In words: Antiinflammatory activity in rat assessed as inhibition of carrageenan-induced paw edema at 50 mg/kg, ip administered 1 hr before carrageenan challenge measured at 4 hrs relative to control. The data set is classed as functional. The following applies: route intraperitoneal.
The test system of data set [3] is Rattus norvegicus. Description: Antiinflammatory activity in rat assessed as inhibition of carrageenan-induced paw edema at 50 mg/kg, ip administered 1 hr before carrageenan challenge measured at 3 hrs relative to control. The data set is classed as functional. To be noted: route intraperitoneal.
Data set [4] concerns Rattus norvegicus. Description: Antiinflammatory activity in rat assessed as inhibition of carrageenan-induced paw edema at 50 mg/kg, ip administered 1 hr before carrageenan challenge measured at 2 hrs relative to control. The data set is classed as functional. The following applies: route intraperitoneal.
In the next data set the test system is MCF7. In words: Cytotoxicity against human MCF7 cells assessed as cell viability at 10 to 20 uM by MTT assay. To be noted: mcf7, 20 µM. The data set is classed as cell-based. Background: Tetrazolium dyes change colour on reduction, which living cells bring about.
Data set [5] has as its system PBMC. Description: Antiinflammatory activity in human PBMC assessed as inhibition of LPS-induced IL1-beta production at 10 uM treated 30 mins before LPS challenge measured after 6 hrs by ELISA. The data set is classed as functional. On the technique in general: An ELISA detects its analyte on a solid surface through an enzyme-linked reagent.
Data set [6] deals with PBMC. Description: Cytotoxicity against human PBMC assessed as cell viability at 10 to 20 uM by MTT assay. The data set is classed as cell-based.
Data set [7] deals with PBMC. In words: Antiinflammatory activity in human PBMC assessed as inhibition of LPS-induced TNFalpha production at 10 uM treated 30 mins before LPS challenge measured after 6 hrs by ELISA. The data set is classed as functional.
The subject of data set [8] is Rattus norvegicus. Description: Antiinflammatory activity in rat assessed as inhibition of carrageenan-induced paw edema at 10 mg/kg, ip administered 1 hr before carrageenan challenge measured at 3 hrs relative to control. The following applies: route intraperitoneal. The data set is classed as functional.
The test system of data set [9] is Rattus norvegicus. Description: Antiinflammatory activity in rat assessed as inhibition of carrageenan-induced paw edema at 10 mg/kg, ip administered 1 hr before carrageenan challenge measured at 1 hr relative to control. The data set is classed as functional. To be noted: route intraperitoneal.
The target in data set [10] is T1, MAP kinase p38 (Homo sapiens) (UniProt O15264+Q15759+Q16539+P53778). In words: Inhibition of etoposide-induced p38 MAPK activation in human MCF7 cells at 20 uM treated 30 mins before etoposide challenge measured after 3 hrs by Western blot analysis. The data set is classed as cell-based.
Data set [11] concerns Rattus norvegicus. In words: Antiinflammatory activity in rat assessed as inhibition of carrageenan-induced paw edema at 10 mg/kg, ip administered 1 hr before carrageenan challenge measured at 4 hrs relative to control. The following applies: route intraperitoneal. The data set is classed as functional.
In data set [12] the target is T1, MAP kinase p38 (Homo sapiens). In words: Inhibition of etoposide-induced p38 MAPK activation in human MCF7 cells assessed as phosphorylated ATF-2 level at 20 uM treated 30 mins before etoposide challenge measured after 3 hrs by Western blot analysis. The data set is classed as cell-based.
Data set [13] concerns Rattus norvegicus. In words: Antiinflammatory activity in rat assessed as inhibition of carrageenan-induced paw edema at 10 mg/kg, ip administered 1 hr before carrageenan challenge measured at 2 hrs relative to control. To be noted: route intraperitoneal. The data set is classed as functional.

For `COc1ccc2c(c1)c(CC(=O)O)c(C)n2C(=O)c1ccc(Cl)cc1` [INDOMETHACIN], the inhibition in vivo at 50 mg/kg was found to be 19.2% with Rattus norvegicus [1], 68.2% in the data set with Rattus norvegicus [2], 48.2% in the data set with Rattus norvegicus [3] and 28.4% in the data set with Rattus norvegicus [4].

With `COc1ccc(-c2nnc(N/N=C/c3cccs3)nc2-c2ccc(OC)cc2)cc1`, the Activity entry in the data set with MCF7 and in the data set with PBMC [6] was “Non-toxic” in each case. Moreover, the values for the inhibition at 10 µM in the data set with PBMC [5] and in the data set on PBMC [7] were 81.8% and 57.5%, respectively.

Regarding `COc1ccc(-c2nnc(N/N=C/c3cccc(OC)c3OC)nc2-c2ccc(OC)cc2)cc1`, the Activity result in the data set on MCF7 and with PBMC [6] was “Non-toxic” in each case. The inhibition in vivo at 10 mg/kg came to 64.2% with Rattus norvegicus [8], 38.8% in the data set with Rattus norvegicus [9], 75.6% in the data set on Rattus norvegicus [11] and 45.3% with Rattus norvegicus [13]. In addition, the values for the inhibition at 10 µM with PBMC [5] and in the data set on PBMC [7] were 89.8% and 71.8%, respectively. For the same compound, in data set [10], the inhibition entry is “inactive”. In addition, in [12], the inhibition entry is “Active”.

In the case of `COc1ccc(-c2nnc(N/N=C/c3ccc(Cl)cc3Cl)nc2-c2ccc(OC)cc2)cc1`, the Activity entry in the data set on MCF7 and in the data set on PBMC [6] was “Non-toxic” in each case. Further, the inhibition at 10 µM in the data set on PBMC [5] was 86.9%; in the data set on PBMC [7] it was 70%.

With `COc1ccc(-c2nnc(N/N=C/c3ccc(OC)c(OC)c3)nc2-c2ccc(OC)cc2)cc1`, the Activity result with MCF7 and in the data set with PBMC [6] was “Non-toxic” in each case. The inhibition at 10 µM was found to be 39.9% in the data set on PBMC [5] and 45% in the data set on PBMC [7].

Regarding `COc1ccc(/C=N/Nc2nnc(-c3ccc(OC)cc3)c(-c3ccc(OC)cc3)n2)cc1`, the Activity result with MCF7 and in the data set with PBMC [6] was “Non-toxic” each time. Besides, the inhibition at 10 µM in the data set on PBMC [5] is 35.9%; with PBMC [7] it was 48.5%.

On to `COc1ccc(-c2nnc(N/N=C/c3ccc4c(c3)OCO4)nc2-c2ccc(OC)cc2)cc1`, for which the Activity result in the data set on MCF7 and with PBMC [6] was “Non-toxic” throughout. The results for the inhibition at 10 µM in the data set on PBMC [5] and in the data set on PBMC [7] were 86.9% and 52.2%, respectively.

Consider `COc1ccc(-c2nnc(N/N=C/c3ccc(O)cc3O)nc2-c2ccc(OC)cc2)cc1`, for which the Activity result with MCF7 and in the data set on PBMC [6] was “Non-toxic” each time. Besides, the inhibition at 10 µM with PBMC [5] was 51.8%; in the data set on PBMC [7], 32.7%.

As for `COc1ccc(-c2nnc(N/N=C/c3cccc(O)c3O)nc2-c2ccc(OC)cc2)cc1`, the Activity entry in the data set on MCF7 and with PBMC [6] was “Non-toxic” throughout. Moreover, the figures for the inhibition at 10 µM in the data set on PBMC [5] and in the data set with PBMC [7] were 78.2% and 46.7%, respectively.

Regarding `COc1ccc(-c2nnc(N/N=C/c3ccco3)nc2-c2ccc(OC)cc2)cc1`, the Activity entry with MCF7 and with PBMC [6] was “Non-toxic” each time. In addition, the inhibition at 10 µM in the data set on PBMC [5] is 84%; in the data set on PBMC [7], 71.1%.

`COc1ccc(-c2nnc(N/N=C/c3ccccc3)nc2-c2ccc(OC)cc2)cc1`: the Activity entry in the data set with MCF7 and in the data set with PBMC [6] was “Non-toxic” throughout. Besides, the inhibition at 10 µM in the data set with PBMC [5] worked out at 71.5%; in the data set on PBMC [7], 53.1%.

Regarding `Oc1ccc(-c2nc(-c3ccc(F)cc3)c(-c3ccncc3)[nH]2)cc1` [SB-202190], the results for the inhibition at 10 µM in the data set with PBMC [5] and in the data set on PBMC [7] were 93.4% and 87.2%, respectively.

`COc1ccc(-c2nnc(N/N=C/c3c(Cl)cccc3[N+](=O)[O-])nc2-c2ccc(OC)cc2)cc1`: the Activity entry in the data set on MCF7 and in the data set with PBMC [6] was “Non-toxic” throughout. Besides, the inhibition at 10 µM turned out to be 2.81% in the data set with PBMC [5] and 47.9% in the data set with PBMC [7].

`COc1ccc(-c2nnc(N/N=C/c3ccc(O)c(OC)c3)nc2-c2ccc(OC)cc2)cc1`: the Activity entry in the data set with MCF7 and with PBMC [6] was “Non-toxic” throughout. The inhibition at 10 µM in the data set on PBMC [5] was found to be 84.3%; in the data set with PBMC [7], 46.1%.

Regarding `COc1ccc(-c2nnc(N/N=C/c3ccncc3)nc2-c2ccc(OC)cc2)cc1`, the Activity result in the data set with MCF7 and with PBMC [6] was “Non-toxic” each time. In addition, the inhibition at 10 µM was 60.8% in the data set with PBMC [5] and 41.8% in the data set with PBMC [7].

In the case of `COc1ccc(-c2nnc(N/N=C/c3ccc([N+](=O)[O-])cc3)nc2-c2ccc(OC)cc2)cc1`, the Activity result in the data set on MCF7 and in the data set on PBMC [6] was “Non-toxic” each time. For the same compound, the figures for the inhibition at 10 µM in the data set on PBMC [5] and in the data set with PBMC [7] were 15.5% and 37.6%, respectively.

As for `COc1ccc(-c2nnc(N/N=C/c3ccc(F)cc3)nc2-c2ccc(OC)cc2)cc1`, the Activity result in the data set on MCF7 and with PBMC [6] was “Non-toxic” in each case. Besides, the inhibition at 10 µM with PBMC [5] was 27.9%; in the data set with PBMC [7], 34.5%.

On to `COc1ccc(-c2nnc(N/N=C/c3cc4ccccc4[nH]3)nc2-c2ccc(OC)cc2)cc1`, for which the Activity result in the data set with MCF7 and in the data set on PBMC [6] was “Non-toxic” each time. The inhibition at 10 µM with PBMC [5] came to 82.3%; with PBMC [7] it was 53.3%.

The record behind these values is ChEMBL document CHEMBL2434930, “Design, synthesis and biological evaluation of novel anti-cytokine 1,2,4-triazine derivatives” (Bioorg Med Chem, 2013).
